This is an account of results in US8859580B2 (Boehringer Ingelheim International GmbH, priority 2007, dated 2014).

pIC50: −log10 of the molar value. Read-outs that look alike come from different tables or passages of the source.

This test has as its target T1, 11β-HSD1 (Homo sapiens, UniProt P28845).
T1 construct: detecting cortisol generated from cortisterone by human liver microsomes; from tissue; host or cells: human liver microsomes
Description: In vitro inhibition of 11β-HSD1, HTRF detection of cortisol generated from cortisone by human liver microsomes. The test is classed as biochemical. Particulars: 1 hour at 37° C., pH 6.0, NADPH 200 μM, cortisone 80 nM, inhibition relative to carbenoxolone signal; for IC50: 11β-HSD IC50 (nM); for pIC50: read-out: 11β-HSD IC50. In outline: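 Inhibition expressed against the carbenoxolone signal and fitted to IC50 curves. Readout: HTRF competition between microsomal cortisol and XL665-labelled cortisol for Eu-cryptate anti-cortisol antibody (typically 2 h), with emission ratio 665/615 calibrated to cortisol concentration.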

T1 sequence (P28845 whole entry): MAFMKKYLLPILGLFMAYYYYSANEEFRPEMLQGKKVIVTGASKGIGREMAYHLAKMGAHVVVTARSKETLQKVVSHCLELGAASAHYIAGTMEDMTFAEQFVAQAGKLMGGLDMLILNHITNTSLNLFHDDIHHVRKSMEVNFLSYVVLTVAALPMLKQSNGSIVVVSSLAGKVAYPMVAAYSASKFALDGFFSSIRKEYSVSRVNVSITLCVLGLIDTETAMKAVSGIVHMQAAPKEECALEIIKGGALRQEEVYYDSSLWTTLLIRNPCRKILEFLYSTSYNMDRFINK

As to `CC12CCN(C(=O)c3ccc4nc[nH]c4c3)C(Cc3cccc(C#N)c31)C2(C)C` (centres unmarked) [Example 316, 3-(1H-Benzoimidazole-5-carbonyl)-6,11,11-trimethyl-1,2,3,4,5,6-hexahydro-2,6-methano-benzo[d]azocine-7-carbonitrile], half-maximal inhibition (IC50) was put at 32 nM.
The same measure, in the same setting: in the case of `CC(C)(O)c1cccc(C(=O)N2CC[C@@]3(C)c4ccccc4C[C@@H]2C3(C)C)c1` [Example 317, [3-(1-Hydroxy-1-methyl-ethyl)-phenyl]-[(2R,6S)-6,11,11-trimethyl-1,2,5,6-tetrahydro-4H-2,6-methano-benzo[d]azocin-3-yl]-methanone] it was 217 nM.
Same read-out and setting: the same measure for `CC1(C)[C@H]2Cc3ccccc3[C@]1(C)CCN2C(=O)c1ccc(O)cc1` [Example 318, (4-Hydroxy-phenyl)-[(2R,6S)-6,11,11-trimethyl-1,2,5,6-tetrahydro-4H-2,6-methano-benzo[d]azocin-3-yl]-methanone]: 31 nM; for `CC1(C)[C@H]2Cc3ccccc3[C@]1(C)CCN2C(=O)c1cccc(O)c1` [Example 319, (3-Hydroxy-phenyl)-[(2R,6S)-6,11,11-trimethyl-1,2,5,6-tetrahydro-4H-2,6-methano-benzo[d]azocin-3-yl]-methanone]: 446 nM.
Still for that read-out and setting: the same measure for `CC1(C)[C@H]2Cc3ccccc3[C@]1(C)CCN2C(=O)c1cc(Cl)c(O)c(Cl)c1` [Example 320, (3,5-Dichloro-4-hydroxy-phenyl)-[(2R,6S)-6,11,11-trimethyl-1,2,5,6-tetrahydro-4H-2,6-methano-benzo[d]azocin-3-yl]-methanone]: 165 nM.
Regarding `COc1ccc2c(c1)C1CCN(C(=O)c3ccc4nc[nH]c4c3)C1C2` (centres unmarked) [Example 321, (3H-Benzoimidazol-5-yl)-(5-methoxy-3,3a,8,8a-tetrahydro-2H-1-aza-cyclopenta[a]inden-1-yl)-methanone], the pIC50 (as a rule, −log10 of the IC50, conventionally taken in molar units) is 5.93.
Still for that read-out and setting: in the case of `CC12CC(Cc3ccccc31)N(C(=O)c1ccc3nc[nH]c3c1)C2` (centres unmarked) [Example 323, (3H-Benzoimidazol-5-yl)-(1-methyl-10-aza-tricyclo[7.2.1.0*2,7*]dodeca-2,4,6-trien-10-yl)-methanone] it was 6.21.
Same read-out and setting: the same measure for `CC12CCCN(C(=O)c3ccc4nc[nH]c4c3)C(Cc3ccccc31)C2` (centres unmarked) [Example 324, (3H-Benzoimidazol-5-yl)-(1-methyl-10-aza-tricyclo[7.4.1.0*2,7*]tetradeca-2,4,6-trien-10-yl)-methanone]: 6.92; for `CC1C2c3ccc(O)cc3CC2N(C(=O)c2ccc3nc[nH]c3c2)CC1(C)C` (centres unmarked) [Example 330, (3H-Benzoimidazol-5-yl)-(7-hydroxy-3,3,4-trimethyl-2,3,4,4a,9,9a-hexahydro-indeno[2,1-b]pyridin-1-yl)-methanone]: 7.36.
As to `COc1c(F)cc(C(=O)N2CC[C@@]3(C)c4ccccc4C[C@@H]2C3(C)C)cc1F` [Example 331, (3,5-Difluoro-4-methoxy-phenyl)-[(2R,6S)-6,11,11-trimethyl-1,2,5,6-tetrahydro-4H-2,6-methano-benzo[d]azocin-3-yl]-methanone], the IC50 – broadly, the point on the concentration scale where inhibition reaches its midpoint – turned out to be 439 nM.
`Cc1nnc(-c2ccc3c(c2)[C@]2(C)CCN(C(=O)c4ccc5nc[nH]c5c4)[C@H](C3)[C@H]2C)o1` [Example 332, (3H-Benzoimidazol-5-yl)-[(2R,6R,11S)-6,11-dimethyl-8-(5-methyl-[1,3,4]oxadiazol-2-yl)-1,2,5,6-tetrahydro-4H-2,6-methano-benzo[d]azocin-3-yl]-methanone] returned a half-maximal inhibitory concentration (IC50) of 64 nM.
On the same count and under the same terms, in the case of `Cc1cnc(-c2nc3cc4c(cc3o2)[C@]2(C)CCN(C(=O)c3ccc5nc[nH]c5c3)[C@H](C4)[C@H]2C)cn1` [Example 333, (3H-Benzoimidazol-5-yl)-[(6R,10R,12S)-5,6,7,8,9,10-hexahydro-10,12-dimethyl-2-(5-methyl-pyrazin-2-yl)-6,10-methano-oxazolo[5,4-i][3]benzazocin-7-yl]-methanone] it was 84 nM; in that of `C[C@@H]1[C@H]2Cc3ccc(-c4nnco4)cc3[C@]1(C)CCN2C(=O)c1ccc2nc[nH]c2c1` [Example 334, (3H-Benzoimidazol-5-yl)-[(2R,6R,11S)-6,11 dimethyl-8-[1,3,4]oxadiazol-2-yl-1,2,5,6-tetrahydro-4H-2,6-methano-benzo[d]azocin 3-yl]-methanone], 104 nM; in that of `CC1(C)[C@H]2Cc3ccccc3[C@]1(C)CCN2C(=O)c1cc(F)c(O)c(F)c1` [Example 335, (3,5-Difluoro-4-hydroxy-phenyl)-[(2R,6S)-6,11,11-trimethyl-1,2,5,6-tetrahydro-4H-2,6-methano-benzo[d]azocin-3-yl]-methanone], 115 nM.
Take `Cc1nnc(-c2ccc3c(c2)[C@]2(C)CCN(C(=O)c4ccc5nc[nH]c5c4)[C@H](C3)[C@H]2C)n1C` [Example 336, (3H-Benzoimidazol-5-yl)-[(2R,6R,11S)-8-(4,5-dimethyl-4H-[1,2,4]triazol-3-yl)-6,11-dimethyl-1,2,5,6-tetrahydro-4H-2,6-methano-benzo[d]azocin-3-yl]-methanone]: the IC50 amounted to 198 nM.
The same measure, in the same setting: the same measure for `CC1(C)[C@H]2Cc3cc4oc([C@H]5CCCO5)nc4cc3[C@]1(C)CCN2C(=O)c1ccc2nc[nH]c2c1` [Example 337, (3H-Benzoimidazol-5-yl)-[(6R,10S)-5,6,7,8,9,10-hexahydro-10,12,12-trimethyl-2-[(R)-tetrahydrofuran-2-yl]-6,10-methano-oxazolo[4,5-i][3]benzazocin-7-yl]-methanone]: 52 nM.
Same read-out and setting: the same measure for `CC1(C)[C@H]2Cc3cc4oc([C@@H]5CCCO5)nc4cc3[C@]1(C)CCN2C(=O)c1ccc2nc[nH]c2c1` [Example 338, (3H-Benzoimidazol-5-yl)-[(6R,10S)-5,6,7,8,9,10-hexahydro-10,12,12-trimethyl-2-[(S)-tetrahydrofuran-2-yl]-6,10-methano-oxazolo[4,5-i][3]benzazocin-7-yl]-methanone]: 63 nM.
On the same count and under the same terms, the same measure for `CC1(C)[C@H]2Cc3ccccc3[C@]1(C)CCN2C(=O)c1ccc(C(O)(C(F)(F)F)C(F)(F)F)cc1` [Example 339, [4-(2,2,2-Trifluoro-1-hydroxy-1-trifluoromethyl-ethyl)-phenyl]-[(2R,6S)-6,11,11-trimethyl-1,2,5,6-tetrahydro-4H-2,6-methano-benzo[d]azocin-3-yl]-methanone]: 1270 nM; for `C[C@@H]1[C@H]2Cc3ccc(C(C)(C)O)cc3[C@]1(C)CCN2C(=O)c1ccc2nc[nH]c2c1` [Example 340, (3H-Benzoimidazol-5-yl)-[(2R,6R,11S)-8-(1-hydroxy-1-methyl-ethyl)-6,11-dimethyl-1,2,5,6-tetrahydro-4H-2,6-methano-benzo[d]azocin-3-yl]-methanone]: 67 nM; for `COC(=O)c1ccc2c(c1)[C@]1(C)CCN(C(=O)c3ccc4nc[nH]c4c3)[C@H](C2)[C@H]1C` [Example 341, (2R,6R,11S)-3-(3H-Benzoimidazole-5-carbonyl)-6,11-dimethyl-1,2,3,4,5,6-hexahydro-2,6-methano-benzo[d]azocine-8-carboxylic acid methyl ester]: 601 nM.
The compound `CC1(C)[C@H]2Cc3ccccc3[C@]1(C)CCN2C(=O)c1ccc(S(N)(=O)=O)cc1` [Example 342, 4-[(2R,6S)-6,11,11-Trimethyl-1,2,5,6-tetrahydro-4H-2,6-methano-benzo[d]azocine-3-carbonyl]-benzenesulfonamide] registered a half-inhibitory concentration (IC50) of 373 nM.
Still for that read-out and setting: in the case of `CC1(C)[C@H]2Cc3ccccc3[C@]1(C)CCN2C(=O)c1cccc(S(N)(=O)=O)c1` [Example 343, 3-[(2R,6S)-6,11,11-Trimethyl-1,2,5,6-tetrahydro-4H-2,6-methano-benzo[d]azocine-3-carbonyl]-benzenesulfonamide] it was 1520 nM; in that of `CC(O)(c1ccc2c(c1)[C@]1(C)CCN(C(=O)c3ccc4nc[nH]c4c3)[C@H](C2)C1(C)C)C(F)(F)F` (stereo partly drawn) [Example 344, (3H-Benzoimidazol-5-yl)-[(2R,6S)-6,11,11-trimethyl-8-(2,2,2-trifluoro-1-hydroxy-1-methyl-ethyl)-1,2,5,6-tetrahydro-4H-2,6-methano-benzo[d]azocin-3-yl]-methanone], 35 nM.
